Patent US10526385B2, “YAP protein inhibiting polypeptide and application thereof” (BAO KANG BIOMEDICAL HEALTHCARE INC, priority 2013, dated 2020)
Where two headings read alike, the source gives them in different places. Where a SMILES comes first, the peptide text is derived from it. Bridges are numbered along the chain shown (N, C = ends). [ ]: non-standard residue; d: D form. Phe(3-Cl) = N[C@@H](Cc1cccc(Cl)c1)C(=O)O; hCys = N[C@@H](CCS)C(=O)O; Nle = CCCC[C@H](N)C(=O)O

Tests used:
[1] = Cell penetration or infiltration of the polypeptides; assay type: cell-based
Text: In this example, the sequence was modified based on SEQ ID NO.: 1. Some preferred modification based on the tested results included: adding a disulfide linkage within the peptide, or adding a cell-penetrating element.

[2] = Stability in plasma (percentage of residual peptides); details: for Stability* (>24 h): plasma
Procedure: For the YAP inhibitory polypeptides modified in above (a) and (b), the IC50 values for TEAD binding and the stability in plasma were measured.

[3] = test system: hepatoma cell line HCCLM3; assay type: cell-based; details: Table 8; at a concentration of 1% in cell cultivating for 72 h; unit inferred; read-out: IC50 HCCLM3
Procedure: (§1) The hepatoma cell line BEL7404 (purchased from The Chinese Academy of Sciences cell bank) was a cell line with high expression of YAP protein; HCCLM3 (purchased from The Chinese Academy of Sciences cell bank) was a cell line with low expression of YAP protein. The hepatoma cell lines (BEL7404 or HCCLM3) were inoculated into a 96-well plate at the concentration of 2000 cells/well, and incubated overnight in RPMI1640 containing 1% bovine serum at 37° C. The hepatoma cell lines were treated with polypeptides having different concentrations at 37° C. for 72 h.
(§2) Moreover, IC50 values of the cells in 1.1 were determined using CCK-8 kit.
(§3) The polypeptide represented by SEQ ID NO.:1 was further modified. The IC50 values of the polypeptides at a concentration of 1% in cell cultivating for 72 h were measured.

[4] = test system: hepatoma cell line BEL7404; assay type: cell-based; details: Table 8; at a concentration of 1% in cell cultivating for 72 h; unit inferred; read-out: IC50 BEL7404
Procedure: as §1, §2, §3

[5] = Table 2, percentage of residual peptides after >24 h

SMILES | IC50 [3] [µM] | IC50 [4] [µM] | further results
CSCC[C@H](NC(=O)[C@@H]1CCCN1C(=O)[C@@H](N)C(C)C)C(=O)N[C@H]1CCSSC[C@@H](C(=O)N[C@@H](CCCCN)C(=O)N2CCC[C@H]2C(=O)N2CCC[C@H]2C(=O)N[C@@H](CCC(=O)O)C(=O)O)NC(=O)[C@H](Cc2ccccc2)NC(=O)[C@H](CO)NC(=O)[C@H](CC(=O)O)NC(=O)[C@@H]2CCCN2C(=O)[C@H](CC(C)C)NC(=O)[C@H](CCCCN)NC(=O)[C@H](CCCNC(=N)N)NC(=O)[C@H](CC(C)C)NC1=O [Peptide 2] | – | – | Percentage of Cell penetration or infiltration (%) ([1]; Table 2, penetration of the peptide with RRMKWKK taken as 100%): 8%; Stability* (>24 h) [2, 5]: 13%; Stability* (>24 h) ([2]; Table 3, >24 h): 7%
CCCC[C@@H]1NC(=O)[C@H](CCCCN)NC(=O)[C@H](CCCNC(=N)N)NC(=O)[C@H](CC(C)C)NC(=O)[C@@H](NC(=O)[C@H](Cc2cccc(Cl)c2)NC(=O)[C@@H]2CCCN2C(=O)[C@@H](N)C(C)C)CCSSC[C@@H](C(=O)N[C@@H](CCCCN)C(=O)N2CCC[C@H]2C(=O)N2CCC[C@H]2C(=O)N[C@@H](CCCNC(=N)N)C(=O)N[C@@H](CCCNC(=N)N)C(=O)N[C@@H](CCSC)C(=O)N[C@@H](CCCCN)C(=O)N[C@@H](Cc2c[nH]c3ccccc23)C(=O)N[C@@H](CCCCN)C(=O)N[C@@H](CCCCN)C(=O)O)NC(=O)[C@H](Cc2ccccc2)NC(=O)[C@H](CO)NC(=O)[C@H](C)NC(=O)[C@@H]2CCCN2C1=O [compound 21] (H-VP[Phe(3-Cl)][hCys]LRK[Nle]PASFCKPPRRMKWKK-OH; disulfide 4-13) | 196 ± 16.3 | 28.6 ± 2.9 | –
CCCC[C@@H]1NC(=O)[C@@H](NC(=O)[C@H](CCCCN)NC(=O)[C@H](CCCCN)NC(=O)[C@H](CC(C)C)NC(=O)[C@H](Cc2cccc(Cl)c2)NC(=O)[C@@H]2CCCN2C(=O)[C@@H](N)C(C)C)CCSSC[C@@H](C(=O)N[C@@H](CCCNC(=N)N)C(=O)N[C@@H](CCCNC(=N)N)C(=O)N[C@@H](CCSC)C(=O)N[C@@H](CCCCN)C(=O)N[C@@H](Cc2c[nH]c3ccccc23)C(=O)N[C@@H](CCCCN)C(=O)N[C@@H](CCCCN)C(=O)O)NC(=O)[C@@H]2CCCN2C(=O)[C@@H]2CCCN2C(=O)[C@H](CCCCN)NC(=O)[C@H](Cc2ccccc2)NC(=O)[C@H](CO)NC(=O)[C@H](C)NC(=O)[C@@H]2CCCN2C1=O [compound 33] (H-VP[Phe(3-Cl)]LKK[hCys][Nle]PASFKPPCRRMKWKK-OH; disulfide 7-16) | 81.1 ± 13.1 | 10.8 ± 2.1 | –
CSCC[C@H](NC(=O)[C@@H]1CCCN1C(=O)[C@@H](N)C(C)C)C(=O)N[C@@H](CCCNC(=N)N)C(=O)N[C@@H](CC(C)C)C(=O)N[C@@H](CCCNC(=N)N)C(=O)N[C@@H](CCCCN)C(=O)N[C@@H](CC(C)C)C(=O)N1CCC[C@H]1C(=O)N[C@@H](CC(=O)O)C(=O)N[C@@H](CO)C(=O)N[C@@H](Cc1ccccc1)C(=O)N[C@@H](Cc1ccccc1)C(=O)N[C@@H](CCCCN)C(=O)N1CCC[C@H]1C(=O)N1CCC[C@H]1C(=O)N[C@@H](CCC(=O)O)C(=O)O [SEQ ID NO.: 1] | – | – | Percentage of Cell penetration or infiltration (%) [1]: <10%; uptake by cells [1]: difficult for effective uptake by cells; Stability* (>24 h) [2, 5]: 0%; stability ([2]; in words): low stability
CCCC[C@@H]1NC(=O)[C@H](CCCCN)NC(=O)[C@H](CCCCN)NC(=O)[C@H](CC(C)C)NC(=O)[C@@H](NC(=O)[C@H](Cc2cccc(Cl)c2)NC(=O)[C@@H]2CCCN2C(=O)[C@@H](N)C(C)C)CCSSC[C@@H](C(=O)N[C@@H](CCCCN)C(=O)N2CCC[C@H]2C(=O)N2CCC[C@H]2C(=O)N[C@@H](CCCNC(=N)N)C(=O)N[C@@H](CCCNC(=N)N)C(=O)N[C@@H](CCSC)C(=O)N[C@@H](CCCCN)C(=O)N[C@@H](Cc2c[nH]c3ccccc23)C(=O)N[C@@H](CCCCN)C(=O)N[C@@H](CCCCN)C(=O)O)NC(=O)[C@H](Cc2ccccc2)NC(=O)[C@H](CO)NC(=O)[C@H](CCC(=O)O)NC(=O)[C@@H]2CCCN2C1=O [compound 29] (H-VP[Phe(3-Cl)][hCys]LKK[Nle]PESFCKPPRRMKWKK-OH; disulfide 4-13) | 254 ± 12.3 | 65.6 ± 8.9 | –
CCCC[C@@H]1NC(=O)[C@H](CCCCN)NC(=O)[C@H](CCCCN)NC(=O)[C@H](CC(C)C)NC(=O)[C@@H](NC(=O)[C@H](Cc2cccc(Cl)c2)NC(=O)[C@@H]2CCCN2C(=O)[C@@H](N)C(C)C)CSSCC[C@@H](C(=O)N[C@@H](CCCCN)C(=O)N2CCC[C@H]2C(=O)N2CCC[C@H]2C(=O)N[C@@H](CCCNC(=N)N)C(=O)N[C@@H](CCCNC(=N)N)C(=O)N[C@@H](CCSC)C(=O)N[C@@H](CCCCN)C(=O)N[C@@H](Cc2c[nH]c3ccccc23)C(=O)N[C@@H](CCCCN)C(=O)N[C@@H](CCCCN)C(=O)O)NC(=O)[C@H](Cc2ccccc2)NC(=O)[C@H](CO)NC(=O)[C@H](C)NC(=O)[C@@H]2CCCN2C1=O [compound 30] (H-VP[Phe(3-Cl)]CLKK[Nle]PASF[hCys]KPPRRMKWKK-OH; disulfide 4-13) | 142 ± 9.4 | 28.2 ± 1.8 | –
CCCC[C@@H]1NC(=O)[C@H](CCCNC(=N)N)NC(=O)[C@H](CCCCN)NC(=O)[C@H](CC(C)C)NC(=O)[C@@H](NC(=O)[C@H](Cc2cccc(Cl)c2)NC(=O)[C@@H]2CCCN2C(=O)[C@@H](N)C(C)C)CCSSC[C@@H](C(=O)N[C@@H](CCCCN)C(=O)N2CCC[C@H]2C(=O)N2CCC[C@H]2C(=O)N[C@@H](CCCNC(=N)N)C(=O)N[C@@H](CCCNC(=N)N)C(=O)N[C@@H](CCSC)C(=O)N[C@@H](CCCCN)C(=O)N[C@@H](Cc2c[nH]c3ccccc23)C(=O)N[C@@H](CCCCN)C(=O)N[C@@H](CCCCN)C(=O)O)NC(=O)[C@H](Cc2ccccc2)NC(=O)[C@H](CO)NC(=O)[C@H](C)NC(=O)[C@@H]2CCCN2C1=O [compound 24] (H-VP[Phe(3-Cl)][hCys]LKR[Nle]PASFCKPPRRMKWKK-OH; disulfide 4-13) | 67.3 ± 38.5 | 25.7 ± 3 | –
CCCC[C@@H]1NC(=O)[C@@H](NC(=O)[C@H](Cc2cccc(Cl)c2)NC(=O)[C@@H]2CCCN2C(=O)[C@@H](N)C(C)C)CCSSC[C@@H](C(=O)N[C@@H](CCCCN)C(=O)N2CCC[C@H]2C(=O)N2CCC[C@H]2C(=O)N[C@@H](CCCNC(=N)N)C(=O)N[C@@H](CCCNC(=N)N)C(=O)N[C@@H](CCSC)C(=O)N[C@@H](CCCCN)C(=O)N[C@@H](Cc2c[nH]c3ccccc23)C(=O)N[C@@H](CCCCN)C(=O)N[C@@H](CCCCN)C(=O)O)NC(=O)[C@H](Cc2ccccc2)NC(=O)[C@H](CO)NC(=O)[C@H](CC(=O)O)NC(=O)[C@@H]2CCCN2C(=O)[C@H](CCCC)NC(=O)[C@H](CCCCN)NC(=O)[C@H](CCCCN)NC1=O [compound 28] (H-VP[Phe(3-Cl)][hCys][Nle]KK[Nle]PDSFCKPPRRMKWKK-OH; disulfide 4-13) | 198 ± 19.6 | 55.4 ± 6.3 | –
